Results as given in US4059700A, “Dermal toxicity of solid compositions containing a montmorillonite type of clay and an organophosphorus pesticide” (priority 1976, dated 1977).

How the values were obtained:
[1] = Dermal toxicity of granular compositions (Example 2, Table I); settings: rabbit, in vivo, topical or ocular, male albino rabbits, 24 h contact, 14 days observation, read-out: LD50 in mg/kg Body Weight
Description: Dermal toxicity of granular compositions of the present invention as compared to conventional granular compositions containing the same pesticide, using male albino rabbits as test animal.
1. Five male albino rabbits weighing approximately 2.2 to 3.5 kilograms are selected for each dosage level. The hair is shaved from the entire trunk.
2. Saran tubing or "Vinylite" film, VU 1900, 12 inches wide, 0.04 millimeters thick and of suitable length to fit around the rabbit.
3. One felt cloth bandage measuring approximately 9×18 inches.
4. Four pieces of 11/2 inches adhesive tape approximately 14 inches long.
1. The granular composition to be tested is placed in the center of the plastic film and is moistened with water.
2. The rabbits underside is moistened with water and the animals placed belly down on the material. The plastic film is then bought up and around the animal and secured at each end with strips of adhesive tape.
3. The felt cloth is then placed under the belly and brought up and around the animal and secured to the body with the remaining two strips of adhesive tape.
1. The animal is placed on the plastic film and is wrapped and the film secured with adhesive tape.
2. The test material is then injected under the plastic with an appropriate size needle and syringe.
3. […]
By the above procedure the dermal toxicity of the granular compositions prepared in Example 1 is determined. […]

[2] = tested on: mammals; settings: ingestion, inhalation or dermal absorption; cited from earlier work
[3] = tested on: insects and nematodes; settings: food and fodder crops; cited from earlier work

SMILES: CCOP(=S)(OCC)SCSC(C)(C)C
- LD50 at 336 h [1]: 1 to 1.4 mg/kg
- toxicity to mammals when introduced into the mammalian circulatory system [2]: extremely toxic to mammals
- control of a broad spectrum of insects and nematodes [3]: highly effective
